The values below come from patent US20260027083A1, “USE OF PPAR AGONIST FOR IMPROVEMENT OF ENERGY METABOLISM” (NOVMETAPHARMA CO., LTD., priority 2022, published 2026).

One assay addresses T1, PPARβ/δ (Homo sapiens, UniProt Q03181).
T1 construct: three types of pcDNA5-GAL4 and pGALRE-luc containing PPARα-LBD, PPARβ/δ-LBD, or PPARγ-LBD; GAL4 (fusion partner from vector pcDNA5-GAL4); expressed in transfected cells; host or cells: HEK293
T1 sequence (Q03181 211-439 limits assumed): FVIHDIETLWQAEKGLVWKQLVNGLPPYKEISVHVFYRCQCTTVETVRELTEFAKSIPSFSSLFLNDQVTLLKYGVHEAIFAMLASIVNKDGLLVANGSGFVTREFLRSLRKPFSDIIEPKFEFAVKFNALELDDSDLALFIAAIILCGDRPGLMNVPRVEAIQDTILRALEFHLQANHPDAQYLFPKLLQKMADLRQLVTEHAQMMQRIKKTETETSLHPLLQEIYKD
Nature of the assay: Gal4 trans-activated luciferase reporter assay, PPARβ/δ-LBD, HEK293. In kind it is cell-based. The note with it: HEK293, drug treatment 24 hours, FIG. 1. The method, then: A plasmid was transformed into E. coli (DE3, Rosetta) and transfected into HEK293 cells and used. Referring to known literatures such as Kanno, Y. & Inouye, Y. J Toxicol Sci 35, 515-525 (2010), Zhao, S. et al. J Nat Prod 79, 879-885 (2016), etc., luciferase assay was performed on three types of pcDNA5-GAL4 and pGALRE-luc containing PPARα-LBD, PPARβ/δ-LBD, or PPARγ-LBD. pProEX-PPAR and pET-28a were used for purification of His-tagged recombinant hPPAR-LBD protein.
A HEK293 cell line was cultured in Dulbecco's Modified Eagle Medium (DMEM) containing 10% Fetal Bovine Serum (FBS) and 1% penicillin-streptomycin (P/S). […]
Transfected HEK293 cells were treated with a drug and after 24 hours, the cells were collected, resuspended in a luciferase lysis buffer (Promega, Madison, Wisconsin, USA), and incubated on ice for 10 minutes. […] Next, Firefly Luciferase (Fluc) and Renilla Luciferase (Rluc) activities were measured using the Dual Luciferase Reporter Assay System (Promega, Madison, Wisconsin, USA). […]
To confirm whether a compound represented by Chemical Formula 1 was a PPAR agonist, Gal4 trans-activated luciferase assay was performed. Specifically, HEK293 cells were transfected with the Gal4-luciferase reporter systems of PPARα, PPARβ/δ, and PPARγ, respectively, harvested after drug treatment for 24 hours, and then analyzed by Dual-Luciferase assay. […]
(In a reporter assay the amount or activity of a reporter protein is the signal.)

Assay [1] concerns high-fat diet mice. Nature of the assay: High-fat diet mice: body weight and food intake. In kind it is in vivo, C57BL/6J mice. The note with it: 5 mg/kg/day oral, 13 weeks, 60% HFD, vs HFD-V, FIG. 6. As for the experimental part: (§1) The care and use of experimental animals were carried out with the approval of the Institutional Animal Care and Use Committee of Pohang University of Science and Technology. C57BL/6J mice were purchased from Japan SLC, Inc. 50 four-week-old male C57/BL/6J mice were acclimated for 2 weeks. The mice were randomly divided and orally administered with vehicle or 5 mg/kg/day of D6 or WY14643 for 13 weeks (oral gavage), and obesity was induced by a 60% high-fat diet (#D12492, Research diets, NJ, USA). Body weights and food intakes were measured weekly from 6 weeks of age, and after 16 weeks of age, adipose tissue and muscle volumes were measured using a Trimodality imaging system.
(§2) To confirm a metabolic disease inhibitory effect of the compound represented by Chemical Formula 1 through animal experiments, mice were acclimated for 2 weeks, and then obesity was induced by feeding a 60% high fat diet (HFD) and orally administered with vehicle or 5 mg/kg/day of the compound represented by Chemical Formula 1 (D6) or WY14643 for 13 weeks. Experiments such as IP-GTT, IP-ITT, and micro-CT were performed at the week 10 of drug administration (FIG. 5).

For assay [2], the system named is high-fat diet mice. Briefly: Serum analysis of high-fat diet mice. It counts as in vivo, C57BL/6J mice. Particulars: 5 mg/kg/day oral, 60% HFD. As for the experimental part: as §1
Mouse blood was obtained by cardiac puncture and incubated at room temperature for 30 minutes. Next, the blood sample was centrifuged at 3,000 rpm for 30 minutes at 4° C., and then the supernatant was collected and analyzed.
as §2

Assay [3] deals with high-fat diet mice. Nature of the assay: Histology of liver tissues of high-fat diet mice (H&E, Sirius Red, Oil Red O, NAFLD activity score). It counts as in vivo, C57BL/6J mice. The note with it: 5 mg/kg/day oral, 13 weeks HFD. As for the experimental part: After the differentiation of 3T3-L1 in the 12-well plate was completed, the cells were fixed with 4% paraformaldehyde and stained with an Oil Red O solution, and then the stained samples were photographed under a microscope (Nikon Eclipse Ti-s). An Oil Red O dye of the samples was dissolved in isopropanol, detected by a spectrophotometer at 492 nm, and the lipid droplet size distribution was measured using ImageJ. OCT-embedded liver samples were stained according to the Roy Ellis protocol.
as §1
Mouse tissues were fixed with 10% formalin solution (Sigma-Aldrich, St. Louis, MO, USA), and paraffin-embedded tissues were segmented and stained with hematoxylin and eosin (H&E) staining and Sirius Red staining (IHC world, Woodstock, USA).
Fibrosis and vesicular fat in liver tissue were observed using Sirius Red and Oil Red O staining methods. The NAFLD activation score was evaluated by referring to Kleiner, D. E. et al. Hepatology 41, 1313-1321, doi: 10.1002/hep.20701 (2005), etc., according to the NASH Clinical Research Network Scoring System.
To evaluate the effects on fatty liver-related symptoms after administration of the compound represented by Chemical Formula […], Sirius Red, and Oil Red O staining were performed on liver tissues of mice fed with a high-fat diet for 13 weeks.

For the compound `COc1ccc(-c2cc(=O)oc3c(C)c(OC(=O)[C@H](Cc4c[nH]c5ccccc45)NC(=O)OC(C)(C)C)ccc23)cc1` [Chemical Formula 1, [4-(4-methoxyphenyl)-8-methyl-2-oxochromen-7-yl] (2S)-3-(1H-indol-3-yl)-2-[(2-methylpropan-2-yl)oxycarbonylamino]propanoate], the “relative luciferase activity (Fluc to Rluc) for PPARβ/δ” value at PPARβ/δ was “dose-dependently increased”. In the assay with high-fat diet mice [1], the food intake result was “no significant change” and the “rate of weight gain” value was “significantly reduced”. Moreover, the “blood sugar (serum glucose)” value in the assay with high-fat diet mice [2] (FIG. 12) is listed as “significantly reduced”. For the same compound, the “blood lipids (LDLC)” value with high-fat diet mice [2] (FIG. 13) is on record as “significantly reduced”. Further, the “level of lipid droplet accumulation in the liver (Oil Red O)” value with high-fat diet mice [3] (FIG. 18) was “reduced”. Moreover, the “NAFLD activity score (H&E images of liver tissue)” value in the assay on high-fat diet mice [3] (compared with WY14643 5 mg/kg/day, FIG. 17) is given as “better effect of improving the NAFLD disease index than the high-fat diet mice (HFD-WY) administered with WY14643”. The “histological findings of fatty liver-related diseases in liver tissue” value in the assay on high-fat diet mice [3] (vs HFD-V, FIG. 16) is “reduced”.
